The structures appear in SMILES notation.

Chain of Hepatocyte growth factor receptor (P08581 whole entry): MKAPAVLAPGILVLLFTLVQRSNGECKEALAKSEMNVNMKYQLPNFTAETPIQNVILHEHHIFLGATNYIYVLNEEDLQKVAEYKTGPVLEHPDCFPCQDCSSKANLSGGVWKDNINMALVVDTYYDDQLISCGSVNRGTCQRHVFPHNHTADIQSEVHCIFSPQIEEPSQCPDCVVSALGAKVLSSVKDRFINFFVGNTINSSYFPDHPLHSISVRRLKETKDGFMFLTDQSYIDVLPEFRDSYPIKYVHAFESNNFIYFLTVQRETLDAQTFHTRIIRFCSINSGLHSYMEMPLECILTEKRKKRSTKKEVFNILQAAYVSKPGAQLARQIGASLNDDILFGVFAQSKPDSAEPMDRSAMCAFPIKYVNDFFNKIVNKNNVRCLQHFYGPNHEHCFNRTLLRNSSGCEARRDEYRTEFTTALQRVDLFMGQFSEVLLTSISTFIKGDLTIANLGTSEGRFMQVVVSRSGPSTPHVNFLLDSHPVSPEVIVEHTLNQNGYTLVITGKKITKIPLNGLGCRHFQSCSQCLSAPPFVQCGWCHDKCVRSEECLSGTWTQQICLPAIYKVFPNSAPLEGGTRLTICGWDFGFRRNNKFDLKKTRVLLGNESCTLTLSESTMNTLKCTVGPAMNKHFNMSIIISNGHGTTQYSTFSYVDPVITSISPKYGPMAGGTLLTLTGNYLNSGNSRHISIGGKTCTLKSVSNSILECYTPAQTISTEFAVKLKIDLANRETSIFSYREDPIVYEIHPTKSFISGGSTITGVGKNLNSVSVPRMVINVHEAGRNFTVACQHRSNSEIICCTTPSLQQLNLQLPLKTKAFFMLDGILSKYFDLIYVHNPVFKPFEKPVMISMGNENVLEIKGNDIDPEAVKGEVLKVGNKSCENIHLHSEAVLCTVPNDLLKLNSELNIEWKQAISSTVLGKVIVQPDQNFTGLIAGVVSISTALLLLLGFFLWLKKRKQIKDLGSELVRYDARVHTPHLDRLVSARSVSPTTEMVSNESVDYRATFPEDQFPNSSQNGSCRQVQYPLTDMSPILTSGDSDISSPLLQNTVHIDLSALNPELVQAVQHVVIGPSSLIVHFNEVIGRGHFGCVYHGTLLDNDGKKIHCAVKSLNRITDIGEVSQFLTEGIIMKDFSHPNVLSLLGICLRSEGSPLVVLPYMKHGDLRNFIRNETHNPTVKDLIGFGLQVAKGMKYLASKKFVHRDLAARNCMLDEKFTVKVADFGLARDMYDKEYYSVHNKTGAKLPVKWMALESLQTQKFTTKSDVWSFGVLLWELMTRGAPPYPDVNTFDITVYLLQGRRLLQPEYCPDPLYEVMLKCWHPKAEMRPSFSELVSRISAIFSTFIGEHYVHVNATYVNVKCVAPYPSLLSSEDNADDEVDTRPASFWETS

The assay addresses Hepatocyte growth factor receptor (Homo sapiens, UniProt P08581). Briefly: c-Met In Vitro Kinase Assay: Optiplate-384 well plate (PerKinElmer), kinase buffer (50 mM Hepes pH7.5, 25 mM NaCl, 2 mM DTT, 0.01% Tween 20, 5 mM Mg2+, 0.5 mM Mn2+), c-Met kinase (1038-1346AA, prepared in-house), c-Met substrate (PerKinElmer, #TRF0127-M), Lance@Eu-W 1024-anti-phosphotyrosine (PT66), (PerKinElmer, #AD0068), ATP (Invitrogen), DMSO (Sigma, #34869), water (Millipore, model Milli-Q). A mixture of c-Met kinase (final concentration 12.5 nM) and test compound (final DMSO is 0.5%) is pre-incubated at 30° C. for 20 min. Then ATP (final concentration 2.5 uM) and kinase substrate (final concentration 50 nM) are added. The resulting mixture is kept at 30° C. for 1 hr, followed by addition of the c-Met antibody. After 1 hr, the plate is read at 615 nm and 665 nm. The ratio of absorption values at 665 nm and 615 nm is calculated and used for the data analysis as follows. This assay has a Minimum Significant Ratio (MSA) of 2-3.
In the case of `Cn1cc2c(F)c(C(F)(F)c3nnc4ccc(-c5cncc(F)c5)nn34)ccc2n1`, the IC50 was 261 nM. As to `Cc1cncc(-c2ccc3nnc(C(F)(F)c4ccc5nn(C)cc5c4F)n3n2)c1`, the IC50 was 119 nM.

Consider `Cn1cc2c(F)c(C(F)(F)c3nnc4ccc(-c5cncc(Cl)c5)nn34)ccc2n1`, for which the 50% inhibitory concentration (IC50) is 194 nM. As to `CNC(=O)c1ccc(-c2ccc3nnc(C(F)(F)c4ccc5nn(C)cc5c4F)n3n2)cn1`, the IC50 is 149 nM.

What is called IC50 is the concentration that gives 50% inhibition.
